Experimental data taken from patent US4230719A, “Novel 2-[4-(3-methyl-2-thienyl)phenyl]propionic acid and pharmaceutically acceptable salt thereof and method for treating symptoms of inflammation and pain” (Toyama Chemical Co., Ltd., priority 1977, dated 1980).
Read-outs that look alike come from different tables or passages of the source.

Tests used:
[1] = tested on: Carrageenin-induced edema; experiment: Carrageenin-induced edema; format: in vivo, rat (Donryu strain, male); details: Rattus norvegicus, po, mean in 5 hours, read-out: Inhibitory percent of swelling
Protocol: (iii) Carrageenin-induced edema
Each of the 6 Donryu strain male rats per group (each weighing about 140 g), which had been fasted overnight, was orally loaded with 4 ml of water and, after 30 minutes, the test compound was orally administered thereto. Thirty minutes thereafter, a 1%(Wt/V) solution of carrageenin in physiological saline was subcutaneously injected into the subplantar region of the left hind paw. At a time interval of one hour, starting from the end of the first hour till the end of the fifth hour after injection of carrageenin, the paw volume was measured by means of a manometer and pressure transducer. By comparison with the percent increase in swelling of the control group of rats to which a 0.5%(V/V) solution of Tween 80 had been administered, the mean inhibitory percent in 5 hours of swelling was calculated by the following equation: [formula]

[2] = tested on: Vascular permeability; experiment: Vascular permeability in rat (Whittle's method); format: in vivo, rat (Wistar strain, male)
Protocol: (ii) Vascular permeability in rat (Whittle's method)
The test compound was orally administered to each Wistar strain male rat (weighing about 150 g) which had been fasted overnight. After 55 minutes, 0.5 ml of a 0.5% Evans Blue solution was intravenously injected. Five minutes thereafter, 0.2 ml/100 g of a 3%(V/V) acetic acid solution was intraperitoneally injected. After 60 minutes from the injection of the acetic acid solution, the rats were killed by suffocation with chloroform. After immediate laparotomy, the dye leaked into the peritoneal cavity was washed out with physiological saline. The washings were made up with the saline to 30 ml and the absorbance at 640 mμ was measured to examine the effect of the test compounds by comparing the amounts of leaked dye per rat with one another.

[3] = in vivo; details: rat, po
[4] = tested on: phenylbenzoquinone writhing; experiment: Analgesic activity, phenylbenzoquinone method in mouse; format: in vivo, mouse (ddY strain, male); details: for Frequency of writhing, mean ± S.E.: during 10 minutes
Protocol: (i) Phenylbenzoquinone method in mouse
The test compound was orally administered to each ddY strain male mouse (weighing 22±2 g; 8 mice per group). […] The frequency of writhing during 10 minutes from 5-minutes after the injection of phenylbenzoquinone was measured and compared with that of a control group to which a 0.5% Tween 80 solution was administered. The percent inhibition was calculated by the following equation: [formula]

[5] = tested on: Adjuvant arthritis; experiment: Adjuvant arthritis; format: in vivo, rat (Sprague-Dawley strain, male); details: 1 mg/kg p.o./day, mean during one week
Protocol: A suspension containing 6 mg/ml of killed and dried Mycobacterium butyricum in liquid paraffin was subcutaneously injected into the subplantar region of the left hind paw of Sprague-Dawley strain male rats (weighing 180 to 200 g) in a proportion of 0.1 ml/rat. After 14 days, the rats having inflammatory paws of similar volumes were selected and the test compound was orally administered to the rats repeatedly at the rate shown in Table 4 during one week and the mean inhibitory percent of swelling during one week was determined.

[6] = tested on: pain threshold (brewer's yeast, hind paw); experiment: Analgesic activity, Randall-Selitto method in rat; format: in vivo, rat (Wistar strain, male); details: for Inhibition: 100% = pain threshold raised by 150 g
Protocol: (ii) Randall-Selitto method in rat
After one hour, the test compound was orally administered. One hour thereafter, the pain threshold value was measured four times at a time interval of one hour. The mean value of four values obtained was taken as the pain threshold value of each group of rats. The activity of the drug was assumed to be 100% when the pain threshold value was raised by 150 g.

[7] = tested on: gastric mucosa and intestine; experiment: Test for ulcerogenic action (ii), three doses, rats on normal meal; format: in vivo, rat (Donryu strain, male); design: scale not given here
Protocol: (ii) In the same manner as in (i), the test compound was orally administered to each Donryu strain male rat (weighing about 180 g; 10 rats per group) which had received normal meal. The second dose was administered after 8 hours and the third dose after 16 hours from the second dose. Five hours after the last administration, the rats were treated in the same manner as in (i). The gastric mucosa injury and the intestinal injury were scored in the same manner as in (i).

[8] = tested on: gastric mucosa and intestine; experiment: Test for ulcerogenic action (i), single dose, fasted rats; format: in vivo; details: for Gastric glandular score: 18 hours, score 0 (no lesion) to 4 (many large ulcers or perforation)
Protocol: (§1) (4) Test for ulcerogenic action
(§2) After 18 hours, the rats were killed by suffocation with chloroform and their stomachs were excised. After having been filled with 5 ml of 1% formalin to fix the gastric mucosa, each stomach was incised along the greater curvature to inspect grossly the extent of injury of the gastric mucosa. The extent of injury was scored as follows: 0, no lesion; 1, petechia or erosion; 2, 1-5 small ulcers; 3, many small ulcers; 4, many large ulcers or perforation. The intestinal injury was evaluated based on the incidence of erosion.

[9] = as above; format: in vivo; details: rat, in vivo, po
Protocol: as §1, §2

[10] = tested on: Vascular permeability; experiment: Vascular permeability in mice (Whittle's method); format: in vivo, mouse (ddY strain, male); details: for Inhibition: dye leakage
Protocol: (i) Vascular permeability in mice (Whittle's method)
The test compound was orally administered to each ddY strain male mouse (weighing each about 20 g). After 20 minutes, 0.1 ml/10 g of a 4%(Wt/V) solution of Pontamine Sky Blue in physiological saline was intravenously injected and 10 minutes thereafter 0.1 ml/10 g of a 0.7%(V/V) solution of acetic acid in physiological saline was injected intraperitoneally. After 30 minutes, the mice were killed by suffocation with chloroform. After immediate laparotomy, the dye leaked into the peritoneal cavity was washed out with distilled water. The washings were made up with water to 30 ml and the absorbance at 620 mμ was measured. The amount of leaked dye per 20 g of mouse weight was compared.

[11] = tested on: Phenol Red (PSP) excretion; experiment: Uricosuric action (a), inhibition of Phenol Red (PSP) excretion; format: in vivo, rabbit (male)
Protocol: (a) The action was examined by the method of B. B. Brodie et al. who reported that the inhibitory action on Phenol Red (PSP) excretion correlates with the uricosuric action [Proc. Soc. Exp. Biol. Med., 86, 884 (1954)]. To a male rabbit weighing 2 to 3 kg was intraperitoneally administered the test compound. After 30 minutes, 75 mg/kg of a Phenol Red suspension was injected into the pinna vein of the rabbit and 30 minutes thereafter a blood sample was drawn from the pinna vein. The blood sample was centrifuged and the serum was diluted with physiological saline. The diluted serum was treated with 0.1 N NaOH to develop the color. The concentration of Phenol Red in the serum was determined from the absorbance at 560 mμ.

[12] = tested on: prostaglandin biosynthesis (homogenate of guinea pig's lung); experiment: Inhibitory action on prostaglandin biosynthesis (TBA method); details: read-out: ID50
Excerpt: Using a homogenate of guinea pig's lung as an enzyme preparation for the biosynthesis of prostaglandin, the inhibitory activity of the test compound against the prostaglandin biosynthesis was examined by the TBA (thiobarbituric acid) method.

[13] = tested on: threshold value of pain due to pressure stimuli (tail); details: for Analgesic effect: 100% = threshold raised by 160 g
[14] = tested on: fever (Mycobacterium butyricum); experiment: Antipyretic action; format: in vivo, rat (Wistar strain, female)
Protocol: A suspension (0.6 mg/0.1 ml) of killed and dried Mycobacterium butyricum in liquid paraffin was subcutaneously injected in an amount of 0.1 ml into the subplantar region of the hind paw of each Wistar strain female rat weighing about 180 g. After 14 hours, the fevered rats were divided into groups, and each test compound was orally administered to each group to examine the antipyretic effect.

[15] = tested on: uric acid in plasma; experiment: Uricosuric action (b), uric acid in plasma of uric acid loaded rats; format: in vivo, rat (Wistar strain, male)
Protocol: (b) After fasting overnight, the test compound was orally administered to a Wistar strain male rat weighing 150 to 200 g. After one hour, the rat was loaded with 100 mg/kg of uric acid by intraperitoneal administration. Thirty minutes thereafter, a blood sample was drawn from the cervical vein and the uric acid concentration in the plasma was determined by use of a kit (Uric acid test Wako) for the uric acid determination.

[16] = tested on: Glomerulonephritis; experiment: Action on glomerulonephritis in rats; format: in vivo, rat (Wistar strain, male); details: 25 mg/kg p.o./day
Excerpt: (ii) Action on glomerulonephritis in rats
Glomerulonephritis was induced in Wistar strain male rats (each weighing 180 to 200 g) by use of an anti-rat's kidney rabbit serum obtained from the serum of a rabbit sensitized with a homogenate of rat's kidney cortice. To the rat producing stable proteinuria was orally administered the test compound repeatedly at the rate shown in Table 12 for 2 weeks, and the inhibition of uric protein was examined.

Work on `CC(C(=O)O)c1ccc(-c2cccs2)c(Cl)c1` (centres unmarked) [Compound C3] yielded an inhibition in vivo at 1 mg/kg ([1]; 1 mg/kg p.o.) of 15.2%, an inhibition in vivo at 5 mg/kg ([1]; 5 mg/kg p.o.) of 42% and an Inhibition ([2]; 1 mg/kg p.o.) of 22.2%. It also gave an Inhibition ([2]; 5 mg/kg p.o.) of 44.6%, an ED30 ([2]; po, rat, read-out: ED30) of 1.7 mg/kg and an LD50 [3] of 270 mg/kg. The “Frequency of writhing, mean ± S.E.” value ([4]; 10 mg/kg p.o.) was 23.1 ± 3.5, the “Frequency of writhing, mean ± S.E.” value ([4]; 20 mg/kg p.o.) was 19.4 ± 3.7 and the “Frequency of writhing, mean ± S.E.” value ([4]; 40 mg/kg p.o.) was 12.4 ± 3.0. It also gave an inhibition in vivo at 10 mg/kg ([4]; Mus musculus, po, 10 min, writhing, 10 mg/kg p.o., read-out: Inhibition) of 2.1%, an inhibition in vivo at 20 mg/kg ([4]; Mus musculus, po, 10 min, writhing, 20 mg/kg p.o., read-out: Inhibition) of 17.8% and an inhibition in vivo at 40 mg/kg ([4]; Mus musculus, po, 10 min, writhing, 40 mg/kg p.o.) of 47.5%. For the same compound, the ED50 ([4]; po, mouse, read-out: ED50) was 50 mg/kg, the “Inhibitory percent of swelling” value [5] was 8.1% and the Inhibition ([6]; 1 mg/kg p.o.) was 14.4%. The Inhibition ([6]; 5 mg/kg p.o.) was 32.5%, the Inhibition ([6]; 25 mg/kg p.o.) was 56.6% and the ED50 ([6]; po, rat, read-out: ED50) was 16.5 mg/kg. The “Score, intestine, mean ± S.E.” value ([7]; 5 mg/kg × 3 p.o.) was 0.83 ± 0.21, the “Score, stomach, mean ± S.E.” value ([7]; 5 mg/kg × 3 p.o.) was 1.67 ± 0.31 and the “Score, intestine, mean ± S.E.” value ([7]; 15 mg/kg × 3 p.o.) was 1.50 ± 0.38. The “Score, stomach, mean ± S.E.” value ([7]; 15 mg/kg × 3 p.o.) was 2.36 ± 0.14, the Intestine erosion incidence ([8]; 10 mg/kg p.o.) was 0/7 and the Gastric glandular score ([8]; 10 mg/kg p.o.) was 1.18 ± 0.30. The Intestine erosion incidence ([8]; 30 mg/kg p.o.) was 0/7, the Gastric glandular score ([8]; 30 mg/kg p.o.) was 1.96 ± 0.42 and the Intestine erosion incidence ([8]; 100 mg/kg p.o.) was 4/7. For the same compound, the Gastric glandular score ([8]; 100 mg/kg p.o.) was 3.39 ± 0.30, the TD50 at 18 h [9] was 27 mg/kg and the “Dye leakage (P.S.B.) mean ± S.E.” value ([10]; 5 mg/kg p.o.) was 289.3 ± 21.4 μg/20g. The “Dye leakage (P.S.B.) mean ± S.E.” value ([10]; 10 mg/kg p.o.) was 254.2 ± 10.3 μg/20g, the “Dye leakage (P.S.B.) mean ± S.E.” value ([10]; 20 mg/kg p.o.) was 226.9 ± 15.3 μg/20g and the Inhibition ([10]; 5 mg/kg p.o.) was 9.8%. For the same compound, the Inhibition ([10]; 10 mg/kg p.o.) was 20.8%, the Inhibition ([10]; 20 mg/kg p.o.) was 29.3% and the ED30 ([10]; po, mouse, read-out: ED30) was 20.5 mg/kg.

For `CCCCC1C(=O)N(c2ccccc2)N(c2ccccc2)C1=O` [Phenylbutazone], the “Concentration of PSP in serum, mean ± S.E.” value ([11]; 50 mg/kg i.p.) was 174.0 ± 5.0 µg/mL, the “Concentration of PSP in serum, mean ± S.E.” value ([11]; 100 mg/kg i.p.) was 238.0 ± 15.9 µg/mL and the IC50 [12] was 68 µM. For the same compound, the Analgesic effect ([13]; 25 mg/kg p.o.) was 26%, the Analgesic effect ([13]; 100 mg/kg p.o.) was 70% and the ED50 ([13]; Mus musculus, po) was 53 mg/kg. The “Mean decrease in temp.” value ([14]; 5 mg/kg p.o.) was 0.27 °C, the “Mean decrease in temp.” value ([14]; 20 mg/kg p.o.) was 1.10 °C and the “Mean decrease in temp.” value ([14]; 100 mg/kg p.o.) was 1.35 °C. For the same compound, the ED1.0 ([14]; Rattus norvegicus, po) was 26.5 mg/kg, the “Uric acid concentration in plasma, mean ± S.E.” value ([15]; 50 mg/kg p.o.) was 5.3 ± 0.37 mg/dL and the “Uric acid concentration in plasma, mean ± S.E.” value ([15]; 100 mg/kg p.o.) was 3.3 ± 0.25 mg/dL. The “Inhibition of uric protein” value ([16]; 7th day) was 1.0% and the “Inhibition of uric protein” value ([16]; 14th day) was 11.2%.
